The results in this text go back to patent US20110015208A1, “PHARMACEUTICAL COMPOSITIONS CONTAINING DOPAMINE RECEPTOR LIGANDS AND METHODS OF TREATMENT USING DOPAMINE RECEPTOR LIGANDS” (priority 2007, published 2011).

“Also recorded” adds a separate entry of the source. Structures can show the parent of a compound that is named as a salt.

Type in all cases: in vivo, rat
Assay [1] concerns chronic mild stress (CMS) model of depression. Put plainly: Chronic mild stress (CMS) model of depression, sucrose consumption (Example 3). The settings on record: for sucrose consumption in stressed animals compared to vehicle: 5 weeks; for time until increase in sucrose intake reached statistical significance vs Week 0: stressed animals. The text has this:
Similar to the study described in Example 2, additional studies were undertaken to further evaluate the antidepressant effect of cariprazine hydrochloride, administered alone, or in combination with escitalopram oxalate, in a chronic mild stress model of depression
In the chronic mild stress (CMS) model, rats subjected to a variety of mild stressors for a prolonged period of time show a substantial decrease in their responsiveness to rewarding stimuli. This deficit is usually monitored by a decrease in the consumption of a 1% sucrose solution, but can also be seen in other tests, such as place preference conditioning or intracranial self-stimulation. The subsensitivity to reward appears to reflect anhedonia (inability to experience pleasure), which is a core symptom of major depressive disorders. Clinically approved antidepressants have shown activity in this animal model by reversing the effects of CMS on sucrose consumption. See, e.g., Sanchez C, Gruca P, Papp M, Behavioural Pharmacology 14, 465-470, 2003.
Male Wistar rats (Charles River, Germany) were brought into the laboratory two months before the start of the experiment. Except as described below, the animals were singly housed with food and water freely available, and were maintained on a 12-h light/dark and in a constant temperature (22±2° C.) and humidity (50±5%) conditions.
The animals were first trained to consume a 1% sucrose solution; training consisted of nine 1 h baseline tests in which sucrose was presented, in the home cage, following 14 h food and water deprivation. The sucrose intake was measured by weighing pre-weighed bottles containing the sucrose solution, at the end of the test. Subsequently, sucrose consumption was monitored, under similar conditions, at weekly intervals throughout the whole experiment.
On the basis of their sucrose intakes in the final baseline test, the animals were divided into two matched groups. One group of animals was subjected to the chronic mild stress procedure for a period of 7 consecutive weeks. Each week of stress regime consisted of: two periods of food or water deprivation, two periods of 45 degree cage tilt, two periods of intermittent illumination (lights on and off every 2 h), two periods of soiled cage (250 ml water in sawdust bedding), one period of paired housing, two periods of low intensity stroboscopic illumination (150 flashes/min), and three periods of no stress. All stressors were 10-14 h of duration and were applied individually and continuously, day and night. Control animals were housed in separate rooms and had no contact with the stressed animals. They were deprived of food and water for 14 h preceding each sucrose test, but otherwise food and water were freely available in the home cage.

Assay [2] has as its system extracellular serotonin (5-HT) in the frontal cortex. Description: Dual-probe microdialysis, serotonin in frontal cortex of freely-moving rats. As to the method:
(§1) A dual-probe microdialysis study was conducted to determine the effects of oral administration of cariprazine hydrochloride, alone and in combination with escitalopram oxalate (administered subcutaneously), on extracellular concentrations of acetylcholine (ACh), dopamine (DA) and serotonin (5-HT) in the frontal cortex of freely-moving rats.
(§2) Experiments were carried out in male Sprague Dawley rats (250-350 g body weight; Charles River, UK). Animals were housed in groups of six on a 12 h/12 h light/dark cycle (lights on at 07.30 h), at an ambient temperature of 21±2° C. and 55±20% humidity. Food and water were available ad libitum. Animals were allowed to acclimatise to these conditions for at least 5 days prior to the study.
(§3) Rats were anaesthetised with isoflurane (5% to induce, 2% to maintain) in an O2/N2O (1 litre/min each) mixture delivered via an anaesthetic unit (St Bernard Medical Services, UK). […] Samples were measured from the same side in each rat (e.g. left probe was used to measure ACh and right probe was used to measure DA and 5-HT). […]

Assay [3] relates to extracellular dopamine (DA) in the frontal cortex. Description: Dual-probe microdialysis, dopamine in frontal cortex of freely-moving rats. As to the method:
as §1, §2, §3

The mark [4] stands for this setting: cariprazine hydrochloride alone 0.03, 0.1 and 0.3 mg/kg po.
Setting [5] is: escitalopram oxalate 2 mg/kg IP once daily.
[6] abbreviates: escitalopram oxalate 1.0 mg/kg sc.

For `CN(C)C(=O)N[C@H]1CC[C@H](CCN2CCN(c3cccc(Cl)c3Cl)CC2)CC1` [Cariprazine hydrochloride, trans-4-{2-[4-(2,3-dichlorophenyl)-piperazin-1-yl]-ethyl}-N,N-dimethylcarbamoyl-cyclohexylamine hydrochloride], the “sucrose consumption in stressed animals compared to vehicle” value in assay [1] (cariprazine hydrochloride 0.01 mg/kg alone, IP once daily) is reported as “significantly decreased”; in assay [1] (cariprazine hydrochloride 0.03 mg/kg alone, IP once daily), “gradually increased”; in assay [1] (cariprazine hydrochloride 0.065 mg/kg IP once daily), “gradually increased”. Besides, the “time until increase in sucrose intake reached statistical significance vs Week 0” value in assay [1] (cariprazine hydrochloride 0.03 mg/kg alone, IP once daily, hydrochloride) is “after four weeks of treatment; also recorded: three weeks”; in assay [1] (cariprazine hydrochloride 0.065 mg/kg IP once daily, hydrochloride), “after the first week of treatment; also recorded: following the first week of administration”. Moreover, in assay [1] (cariprazine hydrochloride alone, full recovery at the end of treatment period), the “magnitude of action relative to escitalopram oxalate” value was “comparable to that of escitalopram oxalate”. Moreover, the “efflux of 5-HT in the frontal cortex” value in assay [2] (setting [4]) is “no significant effect”. Besides, the “efflux of DA in the frontal cortex” value in assay [3] (setting [4]) is reported as “no significant effect”.

Turning to `CN(C)CCC[C@@]1(c2ccc(F)cc2)OCc2cc(C#N)ccc21` [Escitalopram oxalate, 1-[3-(dimethyl-amino)propyl]-1-(p-fluorophenyl)-5-phthalancarbonitrile], in assay [1] (setting [5]), the “sucrose consumption in stressed animals compared to vehicle” value was “gradually increased; also recorded: fully reversed” and the “time until increase in sucrose intake reached statistical significance vs Week 0” value is “after three weeks of treatment”. The “basal 5-HT levels” value in assay [2] (setting [6]) is “no effect”. In addition, in assay [3] (setting [6]), the “basal DA levels” value is recorded as “no effect”.
